The results in this text go back to US8048879B2, “Substituted 4,5,6,7-tetrahydro-isoxazolo[4,5-c]pyridine compounds and use thereof for producing medicaments” (Gruenenthal GmbH, priority 2005, dated 2011).

By inhibition is commonly meant the relative decrease from the control value, in per cent.

One test addresses T1, 5-HT transporter (Rattus norvegicus, UniProt P31652).
T1 construct: from tissue; host or cells: rat brain (medulla and pons), synaptosomes, P2 fraction
In words: 5-HT uptake inhibition, synaptosomes from rat brain (medulla and pons). In kind it is biochemical. The method in brief:
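Freshly isolated rat brain synaptosomes (P2 fraction): hypothalamus for NA uptake, medulla/pons for 5-HT uptake. Uptake of [3H]-NA (7.5 min) or [3H]-5-HT (5 min) at room temperature under O2, stopped by filtration over GF/B. Retained radioactivity counted by scintillation.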

The target of a further test is T2, NA transporter (Rattus norvegicus, UniProt Q9WTR4).
T2 construct: from tissue; host or cells: rat brain (hypothalamus), synaptosomes, P2 fraction
In words: Noradrenalin (NA) uptake inhibition, synaptosomes from rat brain (hypothalamus). In kind it is biochemical. An excerpt: b) Method for Determining Noradrenalin and 5-HT Uptake Inhibition:
Synaptosomes from rat brain regions are freshly isolated for in vitro studies, as described in the publication “The isolation of nerve endings from brain” by E. G. Gray and V. P. Whittaker, J. Anatomy 96, pages 79-88, 1962. The corresponding literature description is hereby introduced as a reference and is deemed to be part of the disclosure.
The tissue (hypothalamus for the determination of noradrenalin uptake inhibition and medulla and pons for the determination of 5-HT uptake inhibition) is homogenised in ice-cooled 0.32 M sucrose (100 mg of tissue/1 mL) in a glass homogeniser with Teflon pestle using five complete up and down strokes at 840 revolutions/minute.
The homogenate is centrifuged at 4° C. for 10 minutes at 1000 g. After subsequent centrifugation at 17000 g for 55 minutes, the synaptosomes (P2 fraction) are obtained, which are resuspended in 0.32 M […] (0.5 mL/100 mg of original weight).
The particular uptake is measured in a 96-well microtitre plate. The volume is 250 μL and the incubation proceeds at room temperature (approx. 20-25° C.) under an O2 atmosphere.
The incubation time is 7.5 minutes for [^3H]-NA and 5 minutes for [^3H]-5-HT. The 96 samples are then filtered through a Unifilter GF/B® microtitre plate (Packard) and washed with 200 mL of incubated buffer using a “Brabdel MPXRI-96T Cell-Harvester”. The Unifilter GF/B plate is dried for 1 hour at 55° C. The plate is then sealed with a Back Seal® (Packard) and 35 μL of scintillation fluid are added per well (Ultima Gold®, Packard). After sealing with a top Seal® (Packard) and establishing an equilibrium (around 5 hours), radioactivity is determined in a “Trilux 1450 Microbeta” (Wallac).
The quantity of protein used in the above determination corresponds to the values known from the literature, as for example described in “Protein measurement with the folin phenol reagent”, Lowry et al., J. Biol. Chem., 193, 265-275, 1951.
A detailed description of the method may additionally be found in the literature, for example in M. Ch. Frink, H.-H. Hennies, W. Engelberger, M. Haurand and B. Wilffert (1996) Arzneim.-Forsch./Drug Res. 46 (III), 11, 1029-1036.
The following characteristics were determined for the NA or 5-HT transporter: […]

T1 sequence (P31652 whole entry): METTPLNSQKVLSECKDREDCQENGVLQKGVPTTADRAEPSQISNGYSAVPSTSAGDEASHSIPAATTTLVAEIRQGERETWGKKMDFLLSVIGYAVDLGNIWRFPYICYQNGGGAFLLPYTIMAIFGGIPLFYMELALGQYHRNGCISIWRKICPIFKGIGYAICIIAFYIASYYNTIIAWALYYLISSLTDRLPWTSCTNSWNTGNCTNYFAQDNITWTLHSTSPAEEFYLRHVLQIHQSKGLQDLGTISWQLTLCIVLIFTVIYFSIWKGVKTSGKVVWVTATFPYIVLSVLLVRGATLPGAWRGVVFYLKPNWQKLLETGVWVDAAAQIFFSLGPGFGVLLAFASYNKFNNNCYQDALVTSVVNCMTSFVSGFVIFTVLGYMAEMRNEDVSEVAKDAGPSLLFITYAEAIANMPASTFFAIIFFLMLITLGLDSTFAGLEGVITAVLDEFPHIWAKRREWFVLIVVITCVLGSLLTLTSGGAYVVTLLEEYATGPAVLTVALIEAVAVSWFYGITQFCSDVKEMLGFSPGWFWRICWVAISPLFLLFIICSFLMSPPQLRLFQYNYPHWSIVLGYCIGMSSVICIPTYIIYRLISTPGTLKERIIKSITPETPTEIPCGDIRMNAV
T2 sequence (Q9WTR4 1-597): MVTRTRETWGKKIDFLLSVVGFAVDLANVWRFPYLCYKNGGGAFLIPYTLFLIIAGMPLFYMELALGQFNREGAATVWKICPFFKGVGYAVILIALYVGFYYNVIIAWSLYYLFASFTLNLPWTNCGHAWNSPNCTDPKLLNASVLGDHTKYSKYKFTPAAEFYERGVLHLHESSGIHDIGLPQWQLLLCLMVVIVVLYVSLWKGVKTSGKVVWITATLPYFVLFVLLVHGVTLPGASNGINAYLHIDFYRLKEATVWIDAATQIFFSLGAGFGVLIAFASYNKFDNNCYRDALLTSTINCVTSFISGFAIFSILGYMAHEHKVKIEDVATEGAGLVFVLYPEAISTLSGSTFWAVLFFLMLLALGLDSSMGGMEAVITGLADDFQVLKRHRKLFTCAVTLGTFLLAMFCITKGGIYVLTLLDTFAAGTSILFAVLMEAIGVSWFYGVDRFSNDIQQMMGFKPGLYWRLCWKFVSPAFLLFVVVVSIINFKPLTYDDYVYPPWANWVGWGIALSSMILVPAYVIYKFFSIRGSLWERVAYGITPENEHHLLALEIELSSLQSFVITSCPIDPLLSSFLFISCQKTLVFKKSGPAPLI

On to `COc1ccc(NC(=O)N2CCc3onc(C(=O)NCc4ccccc4)c3C2)cc1` [Example 151, N^3-benzyl-N^5-(4-methoxyphenyl)-6,7-dihydroisoxazolo[4,5-c]pyridine-3,5(4H)-dicarboxamide], for which the inhibition at 10 µM on 5-HT transporter worked out at 36%; on NA transporter, 34%.
For `Cc1ccc(NC(=O)N2CCc3onc(C(=O)NCCc4ccccc4)c3C2)cc1[N+](=O)[O-]` [Example 4, 6,7-dihydro-4H-isoxazolo[4,5-c]pyridine-3,5-dicarboxylic acid 5-[(4-methyl-3-nitro-phenyl) amide] 3-(phenethyl amide)], on 5-HT transporter, the “5-HT uptake (rat), 10 μM, % inhibition” value came out at 45%. Moreover, at NA transporter, the “NA Uptake (rat), 10 μM, % inhibition” value came out at 57%.
`O=C(c1noc2c1CN(S(=O)(=O)c1ccc(Cl)c(Cl)c1)CC2)N1CCN(c2nccs2)CC1` [Example 140, (5-(3,4-dichlorophenylsulfonyl)-4,5,6,7-tetrahydroisoxazolo[4,5-c]pyridin-3-yl)(4-(thiazol-2-yl)piperazin-1-yl)methanone]: the results for the inhibition at 10 µM against 5-HT transporter and against NA transporter were 47% and 46%, respectively.
On the same counts, the results for `COCCNC(=O)c1noc2c1CN(C(=O)c1ccc(C(F)(F)F)c(F)c1)CC2` [Example 153, 5-(3-fluoro-4-(trifluoromethyl)benzoyl)-N-(2-methoxyethyl)-4,5,6,7-tetrahydroisoxazolo[4,5-c]pyridine-3-carboxamide] are 37% and -12%.
For `CC(NC(=O)N1CCc2onc(C(=O)NCCc3ccccc3)c2C1)c1cccc2ccccc12` (centres unmarked) [Example 18, 6,7-dihydro-4H-isoxazolo[4,5-c]pyridine-3,5-dicarboxylic acid 5-[(1-naphthalen-1-yl-ethyl) amide]3-(phenethyl amide)], the “5-HT uptake (rat), 10 μM, % inhibition” value on 5-HT transporter was 42%. In addition, the “NA Uptake (rat), 10 μM, % inhibition” value at NA transporter worked out at 47%.
For `COc1ccc(NC(=O)N2CCc3onc(C(=O)NCc4ccc(S(N)(=O)=O)cc4)c3C2)cc1` [Example 154, N^5-(4-methoxyphenyl)-N^3-(4-sulfamoylbenzyl)-6,7-dihydroisoxazolo[4,5-c]pyridine-3,5(4H)-dicarboxamide], the figures for the inhibition at 10 µM against 5-HT transporter and against NA transporter were -8% and -4%, respectively.
As to `Cc1cc(C)c(S(=O)(=O)N2CCc3onc(C(=O)N4CCN(c5nccs5)CC4)c3C2)c(C)c1` [Example 141, (5-(mesitylsulfonyl)-4,5,6,7-tetrahydroisoxazolo[4,5-c]pyridin-3-yl)(4-(thiazol-2-yl)piperazin-1-yl)methanone], the inhibition at 10 µM is 58% at 5-HT transporter and 41% against NA transporter.
Taken in the same sequence, the figures for `O=C(c1noc2c1CN(S(=O)(=O)c1cccc(C(F)(F)F)c1)CC2)N(CCc1ccccc1)Cc1ccccc1` [Example 68, 5-(3-trifluoromethyl-benzenesulfonyl)-4,5,6,7-tetrahydro-isoxazolo[4,5-c]pyridine-3-carboxylic acid benzyl-phenethyl amide] were 63% and 84%.
Taken in the same sequence, the figures for `O=C(NC1CCN(Cc2ccccc2)C1)c1noc2c1CN(S(=O)(=O)c1ccc(OC(F)(F)F)cc1)CC2` (centres unmarked) [Example 117, 5-(4-trifluoromethoxy-benzenesulfonyl)-4,5,6,7-tetrahydro-isoxazolo[4,5-c]pyridine-3-carboxylic acid (1-benzyl-pyrrolidin-3-yl)-amide] were 68% and 75%.
On the same counts, the results for `Cc1cc(C)c(S(=O)(=O)N2CCc3onc(C(=O)N4CCC(CCN5CCCC5)CC4)c3C2)c(C)c1` [Example 146, (5-(mesitylsulfonyl)-4,5,6,7-tetrahydroisoxazolo[4,5-c]pyridin-3-yl)(4-(2-(pyrrolidin-1-yl)ethyl)piperidin-1-yl)methanone] are 53% and 42%.
As for `O=C(NCc1ccccc1)c1noc2c1CN(C(=O)NCCc1ccccc1)CC2` [Example 10, 6,7-dihydro-4H-isoxazolo[4,5-c]pyridine-3,5-dicarboxylic acid 3-benzyl amide 5-(phenethyl amide)], the “5-HT uptake (rat), 10 μM, % inhibition” value at 5-HT transporter stood at 51%. The “NA Uptake (rat), 10 μM, % inhibition” value on NA transporter came to 42%.
Take `COc1ccc(Cl)cc1NC(=O)N1CCc2onc(C(=O)NCC(C)C)c2C1` [Example 24, 6,7-dihydro-4H-isoxazolo[4,5-c]pyridine-3,5-dicarboxylic acid 5-[(5-chloro-2-methoxyphenyl) amide] 3-(isobutyl-amide)]: the “NA Uptake (rat), 10 μM, % inhibition” value on NA transporter came out at 51%.
`O=C(NC1CCCC1)c1noc2c1CN(C(=O)COc1ccc(Cl)cc1)CC2` [Example 81, 5-[2-(4-chlorophenoxy)-acetyl]-4,5,6,7-tetrahydro-isoxazolo[4,5-c]pyridine-3-carboxylic acid cyclopentyl amide]: at NA transporter, the inhibition at 10 µM was 68%.
The same measure, in the same setting: then `CC(CCc1ccccc1)NC(=O)c1noc2c1CN(S(=O)(=O)c1ccc(F)cc1)CC2` (centres unmarked) [Example 38, 5-(4-fluoro-benzenesulfonyl)-4,5,6,7-tetrahydro-isoxazolo[4,5-c]pyridine-3-carboxylic acid (1-methyl-3-phenyl-propyl) amide], with 66%; and `O=C(Nc1ccccc1)c1noc2c1CN(Cc1ccc3ccccc3c1Br)CC2` [Example 135, 5-(1-bromo-naphthalen-2-ylmethyl)-4,5,6,7-tetrahydro-isoxazolo[4,5-c]pyridine-3-carboxylic acid phenyl amide], with 60%.
On the same count and under the same terms, then `CCOC(=O)CCNC(=O)c1noc2c1CN(S(=O)(=O)c1ccc(Cl)cc1)CC2` [Example 121, 3-{[5-(4-chloro-benzenesulfonyl)-4,5,6,7-tetrahydro-isoxazolo[4,5-c]pyridine-3-carbonyl]-amino}-propionic acid ethyl ester], with 61%; and `CCOC(=O)CCNC(=O)c1noc2c1CN(C(=O)Cc1ccc3ccccc3c1)CC2` [Example 125, 3-{[5-(2-naphthalen-2-yl-acetyl)-4,5,6,7-tetrahydro-isoxazolo[4,5-c]pyridine-3-carbonyl]-amino}-propionic acid ethyl ester], with 63%.
With `CC(NC(=S)N1CCc2onc(C(=O)NCCc3ccccc3)c2C1)c1ccccc1` (centres unmarked) [Example 132, 5-(1-phenyl-ethylthiocarbamoyl)-4,5,6,7-tetrahydro-isoxazolo[4,5-c]pyridine-3-carboxylic acid phenethyl amide], on NA transporter, the inhibition at 10 µM amounted to 76%.
Regarding `COc1ccc(OCCNC(=O)c2noc3c2CN(S(=O)(=O)c2ccc(C)cc2)CC3)cc1` [Example 109, 5-(toluene-4-sulfonyl)-4,5,6,7-tetrahydro-isoxazolo[4,5-c]pyridine-3-carboxylic acid [2-(4-methoxy-phenoxy)-ethyl] amide], at NA transporter, the inhibition at 10 µM amounted to 64%.
`CN(C)S(=O)(=O)N1CCc2onc(C(=O)N3CCOCC3)c2C1` [Example 49, 3-(morpholine-4-carbonyl)-6,7-dihydro-4H-isoxazolo[4,5-c]pyridine-5-sulfonic acid dimethyl amide]: the inhibition at 10 µM at NA transporter is 73%.
Turning to `O=C(NCCCc1ccccc1)c1noc2c1CN(S(=O)(=O)c1ccc(F)cc1)CC2` [Example 35, 5-(4-fluoro-benzenesulfonyl)-4,5,6,7-tetrahydro-isoxazolo[4,5-c]pyridine-3-carboxylic acid (3-phenyl-propyl) amide], the inhibition at 10 µM against NA transporter is 73%.
Consider `O=C(NCCc1ccccc1)c1noc2c1CN(C(=S)Nc1c(F)c(F)c(F)c(F)c1F)CC2` [Example 131, 5-pentafluorophenylthiocarbamoyl-4,5,6,7-tetrahydro-isoxazolo[4,5-c]pyridine-3-carboxylic acid phenethyl amide], for which the “NA Uptake (rat), 10 μM, % inhibition” value on NA transporter came to 73%.
Consider `O=C(NC1CCCC1)c1noc2c1CN(C(=O)C=Cc1ccccc1)CC2` [Example 44, 5-(3-phenyl-acryloyl)-4,5,6,7-tetrahydro-isoxazolo[4,5-c]pyridine-3-carboxylic acid cyclopentyl amide], for which the inhibition at 10 µM at NA transporter worked out at 76%.
Turning to `CC12CCC(C(=O)N3CCc4onc(C(=O)NCCN5CCCC5)c4C3)(OC1=O)C2(C)C` (centres unmarked) [Example 51, 5-(4,7,7-trimethyl-3-oxo-2-oxa-bicyclo[2.2.1]heptane-1-carbonyl)-4,5,6,7-tetrahydro-isoxazolo[4,5-c]pyridine-3-carboxylic acid (2-pyrrolidin-1-yl-ethyl) amide], the inhibition at 10 µM at NA transporter was determined as 73%.
